Measurements: the CheMixHub viscosity set

Assay: xn = mol fraction of the nth substance listed

CCCC(=O)OCC(COC(=O)CCC)OC(=O)CCC + CCCCO
viscosity [mPa·s], 101.33 kPa
Conditions | x1 = 0.1 | x1 = 0.2 | x1 = 0.3 | x1 = 0.4 | x1 = 0.5 | x1 = 0.6 | x1 = 0.7 | x1 = 0.8 | x1 = 0.9
298 K | 2.61 | 3 | 3.46 | 3.99 | 4.58 | 5.23 | 5.96 | 6.73 | 7.66
303 K | 2.31 | 2.64 | 3.03 | 3.48 | 3.97 | 4.54 | 5.14 | 5.77 | 6.54
308 K | 2.04 | 2.33 | 2.68 | 3.06 | 3.45 | 3.95 | 4.45 | 5.01 | 5.64
313 K | 1.83 | 2.08 | 2.38 | 2.7 | 3.06 | 3.48 | 3.9 | 4.37 | 4.89

CCCCCCCCCC(=O)OCC + CCCCO
viscosity [mPa·s], 100 kPa
Conditions | x1 = 0.1006 | x1 = 0.2001 | x1 = 0.3011 | x1 = 0.3996 | x1 = 0.4999 | x1 = 0.6021 | x1 = 0.7009 | x1 = 0.7986 | x1 = 0.9001
293.15 K | 2.504 | 2.299 | 2.212 | 2.15 | 2.125 | 2.139 | 2.168 | 2.2 | 2.258
298.15 K | 2.217 | 2.037 | 1.967 | 1.916 | 1.914 | 1.921 | 1.962 | 1.984 | 2.047
303.15 K | 1.977 | 1.825 | 1.769 | 1.733 | 1.727 | 1.738 | 1.777 | 1.798 | 1.854
308.15 K | 1.764 | 1.643 | 1.596 | 1.568 | 1.569 | 1.581 | 1.608 | 1.639 | 1.687
313.15 K | 1.581 | 1.488 | 1.455 | 1.433 | 1.431 | 1.444 | 1.469 | 1.501 | 1.543
318.15 K | 1.424 | 1.344 | 1.322 | 1.305 | 1.31 | 1.324 | 1.355 | 1.379 | 1.42

CCCCN + CCCCOC(C)=O
303.15 K, 101 kPa
Conditions | viscosity [mPa·s]
x1 = 0.21 | 0.6407
x1 = 0.2909 | 0.637
x1 = 0.4108 | 0.6349
x1 = 0.5598 | 0.6248
x1 = 0.64 | 0.6218
x1 = 0.7026 | 0.6038
x1 = 0.8413 | 0.5869
x1 = 0.9148 | 0.5794

O=C(O)C(Cl)(Cl)Cl + CCCCOC(C)=O
323.15 K, 101 kPa
Conditions | viscosity [mPa·s]
x2 = 0.104 | 4.361
x2 = 0.187 | 3.749
x2 = 0.3013 | 2.85
x2 = 0.379 | 2.406
x2 = 0.494 | 1.798
x2 = 0.584 | 1.419
x2 = 0.7106 | 0.996
x2 = 0.7901 | 0.81
x2 = 0.929 | 0.588

CCCCCCCCCC(=O)OCC + CCCO
viscosity [mPa·s], 100 kPa
Conditions | x1 = 0.1002 | x1 = 0.2005 | x1 = 0.2999 | x1 = 0.4 | x1 = 0.4999 | x1 = 0.601 | x1 = 0.7 | x1 = 0.7998 | x1 = 0.9011
293.15 K | 2.031 | 1.963 | 1.956 | 1.986 | 2.013 | 2.057 | 2.123 | 2.176 | 2.25
298.15 K | 1.809 | 1.759 | 1.757 | 1.786 | 1.814 | 1.854 | 1.912 | 1.97 | 2.029
303.15 K | 1.618 | 1.586 | 1.587 | 1.611 | 1.642 | 1.681 | 1.74 | 1.78 | 1.845
308.15 K | 1.456 | 1.433 | 1.438 | 1.461 | 1.493 | 1.53 | 1.578 | 1.623 | 1.681
313.15 K | 1.315 | 1.299 | 1.309 | 1.333 | 1.364 | 1.403 | 1.446 | 1.486 | 1.538
318.15 K | 1.192 | 1.183 | 1.196 | 1.22 | 1.25 | 1.285 | 1.33 | 1.368 | 1.415

CCCCN + CCCO
viscosity [mPa·s]
Conditions | 298.15 K | 303.15 K | 313.15 K
100 kPa, x2 = 0.1 | 0.534 | – | –
100 kPa, x2 = 0.198 | 0.612 | – | –
100 kPa, x2 = 0.301 | 0.711 | – | –
100 kPa, x2 = 0.417 | 0.846 | – | –
100 kPa, x2 = 0.501 | 0.965 | – | –
100 kPa, x2 = 0.6 | 1.117 | – | –
100 kPa, x2 = 0.695 | 1.273 | – | –
100 kPa, x2 = 0.786 | 1.451 | – | –
100 kPa, x2 = 0.925 | 1.76 | – | –
101.33 kPa, x1 = 0.095 | – | 1.64 | 1.281
101.33 kPa, x1 = 0.1888 | – | 1.48 | 1.159
101.33 kPa, x1 = 0.2913 | – | 1.286 | 1.018
101.33 kPa, x1 = 0.3804 | – | 1.129 | 0.9048
101.33 kPa, x1 = 0.5153 | – | 0.9113 | 0.7453
101.33 kPa, x1 = 0.6163 | – | 0.7686 | 0.6425
101.33 kPa, x1 = 0.7142 | – | 0.6509 | 0.5578
101.33 kPa, x1 = 0.788 | – | 0.5832 | 0.5009
101.33 kPa, x1 = 0.9022 | – | 0.4992 | 0.4349

CC[N+](=O)[O-] + CCCO
viscosity [mPa·s], 101.33 kPa
Conditions | 293.15 K | 303.15 K | 313.15 K
x2 = 0.05 | 0.686 | 0.609 | 0.544
x2 = 0.1 | 0.683 | 0.605 | 0.539
x2 = 0.1499 | 0.69 | 0.607 | 0.539
x2 = 0.2001 | 0.702 | 0.617 | 0.547
x2 = 0.25 | 0.72 | 0.629 | 0.554
x2 = 0.3 | 0.748 | 0.647 | 0.567
x2 = 0.35 | 0.776 | 0.667 | 0.581
x2 = 0.4 | 0.808 | 0.694 | 0.609
x2 = 0.45 | 0.848 | 0.724 | 0.623
x2 = 0.5 | 0.898 | 0.758 | 0.655
x2 = 0.55 | 0.951 | 0.8 | 0.681
x2 = 0.6 | 1.016 | 0.852 | 0.718
x2 = 0.65 | 1.085 | 0.902 | 0.756
x2 = 0.7 | 1.17 | 0.967 | 0.808
x2 = 0.75 | 1.282 | 1.043 | 0.881
x2 = 0.8 | 1.391 | 1.133 | 0.947
x2 = 0.85 | 1.539 | 1.243 | 1.035
x2 = 0.9 | 1.717 | 1.377 | 1.125
x2 = 0.95 | 1.945 | 1.559 | 1.239

Cc1ccncc1 + CCCO
298.15 K, 101.33 kPa
Conditions | viscosity [mPa·s]
x2 = 0.091 | 0.9024
x2 = 0.2095 | 0.9381
x2 = 0.3419 | 1.007
x2 = 0.4177 | 1.071
x2 = 0.5662 | 1.168
x2 = 0.7017 | 1.327
x2 = 0.7646 | 1.405
x2 = 0.8291 | 1.52
x2 = 0.867 | 1.591

O=[N+]([O-])c1ccc(O)cc1 + CCN(CC)CC
298.16 K, 101 kPa
Conditions | viscosity [mPa·s]
x1 = 0.5818 | 294.3
x1 = 0.5939 | 366.2
x1 = 0.6179 | 606.8
x1 = 0.6393 | 908.7
x1 = 0.6718 | 2449
x1 = 0.6969 | 3733
x1 = 0.7221 | 6669
x1 = 0.739 | 7410
x1 = 0.7731 | 8242
x1 = 0.7883 | 7522
x1 = 0.8008 | 6867
x1 = 0.8106 | 6269

CCC(=O)OCCN1CCNCC1 + CCO
Conditions | viscosity [mPa·s]
293.15 K, 100 kPa, x1 = 0.1216 | 37.45

CC[N+](=O)[O-] + CCO
viscosity [mPa·s], 101.33 kPa
Conditions | 293.15 K | 303.15 K | 313.15 K
x2 = 0.05 | 0.669 | 0.598 | 0.538
x2 = 0.1001 | 0.655 | 0.584 | 0.526
x2 = 0.15 | 0.648 | 0.576 | 0.519
x2 = 0.2 | 0.645 | 0.573 | 0.512
x2 = 0.25 | 0.65 | 0.57 | 0.507
x2 = 0.3 | 0.651 | 0.571 | 0.506
x2 = 0.35 | 0.658 | 0.575 | 0.509
x2 = 0.4 | 0.668 | 0.583 | 0.513
x2 = 0.45 | 0.681 | 0.593 | 0.519
x2 = 0.5 | 0.697 | 0.603 | 0.528
x2 = 0.55 | 0.716 | 0.618 | 0.538
x2 = 0.6 | 0.738 | 0.636 | 0.55
x2 = 0.65 | 0.769 | 0.656 | 0.567
x2 = 0.7 | 0.804 | 0.682 | 0.586
x2 = 0.7499 | 0.839 | 0.712 | 0.608
x2 = 0.8 | 0.886 | 0.748 | 0.637
x2 = 0.8499 | 0.944 | 0.793 | 0.672
x2 = 0.9 | 1.015 | 0.847 | 0.715
x2 = 0.9499 | 1.103 | 0.914 | 0.77
